Experimental data from patent US4075340A, “Thieno [2,3-C] pyridine derivatives and therapeutic composition containing same” (Parcor, priority 1975, dated 1978).
Structures can show the parent of a compound that is named as a salt. Where two headings read alike, the source gives them in different places.

Experiments:
[1] = tested on: carrageenin-induced edema in rats; assay: Localized Carrageenin-induced Edema Method; format: in vivo; settings: Rattus norvegicus, oral 100 mg/kg, repeated (1 hour before, with, 1 and 2.5 hours after carrageenin)
Procedure: a) Localized Carrageenin-induced Edema Method
0.1 ml of a 1% carrageenin solution is injected at time 0 in the metatarsal flexor muscles of the right hind limb of rats. The animals of the treated group are administered orally, additionally, 100 mg/kg of the test derivative, respectively one hour prior to and then simultaneously with the phlogogenic agent, and then one hour and 2.5 hours thereafter. The determinations effected with a ROCH micrometer at times 0, 1 hour, 2 hrs, 3 hrs and 5hrs after carrageenin administration, make it possible to determine the percent anti-inflammatory activity, as a function of time.

[2] = tested on: ovalbumin-induced systemic edema in rats; assay: Ovalbumin-induced Systemic Edema Method; format: in vivo; settings: Rattus norvegicus, oral 100 mg/kg, 1 hour before and with ovalbumin
Procedure: b) Ovalbumin-induced Systemic Edema Method
Rats are administered a simultaneous intraperitoneal injection of 1 ml ovalbumin and 0.5 ml of a 1% aqueous Evans Blue solution. The animals of the treated group are additionally administered orally 100 mg/kg of the test derivative, one hour prior to ovalbumin administration and then simultaneously with said ovalbumin administration. The intensity of the phenomenon thus induced is rated according to a scale from 1 to 5, according to the progress of the inflammatory syndrome. The measurements are effected after 2 hours and after 3 hours. Thus are determined the mean intensity of the edema and the percent decrease of the edema reaction.

[3] = tested on: blood platelet aggregation; assay: Inhibiting activity on blood platelet aggregation (adenosine diphosphate induced, turbidimetric assay); format: in vivo; settings: rat plasma, animals administered 100 mg/kg, read-out: percent inhibition on blood platelet aggregation
Procedure: Rat plasma, prepared to contain 600,000+20,000 blood platelets per mm3 is normally cloudy. Addition of adenosine diphosphate induces blood platelet aggregation and, thus an increase of the light transmission. When the same test is effected with a plasma prepared from the blood of an animal which has been administered 100 mg/kg of a derivative having an inhibiting effect on blood platelet aggregation, there is no aggregation of the blood platelets and the serum remains cloudy. The turbidimetric assay effected with a spectrophotometer provides a measure of the inhibiting activities of the test derivatives on blood platelet aggregation.

[4] = acute toxicity, LD50 /24 hrs/kg body weight, intravenous route, method according to Miller and Tainter; settings: in vivo
[5] = after 1 hour, read-out: Percent anti-inflammatory activity after 1 hour
[6] = after 2 hours, read-out: Percent anti-inflammatory activity after 2 hours
[7] = after 5 hours, read-out: Percent anti-inflammatory activity after 5 hours
[8] = after 2 hours, read-out: Percent decrease (of the edema reaction) after 2 hours
[9] = after 3 hours, read-out: Percent decrease (of the edema reaction) after 3 hours

CCCCCCCCCCCCN1CCc2ccsc2C1 [Derivative No. 1, 6-n-dodecyl-4,5,6,7-tetrahydro-thieno[2,3-c]pyridine]
inhibition in vivo at 100 mg/kg [1, 5]: 38%
inhibition in vivo at 100 mg/kg [1, 6]: 46%
inhibition in vivo at 100 mg/kg [1, 7]: 54%
inhibition in vivo at 100 mg/kg [2, 8]: 36%
inhibition in vivo at 100 mg/kg [2, 9]: 51%

COc1cc(CN2CCc3ccsc3C2C)cc(OC)c1OC (stereo not shown) [Derivative No. 3, 7-methyl-6-(3,4,5-trimethoxy-benzyl)-4,5,6,7-tetrahydro-thieno[2,3-c]pyridine]
inhibition at 100 mg/kg [3]: 91%

O=C(O)c1ccccc1CN1CCc2ccsc2C1 [Derivative No. 5, 6-o-carboxybenzyl-4,5,6,7-tetrahydro-thieno[2,3-c]pyridine]
inhibition in vivo at 100 mg/kg [1, 5]: 44%
inhibition in vivo at 100 mg/kg [1, 6]: 52%
inhibition in vivo at 100 mg/kg [1, 7]: 60%
inhibition in vivo at 100 mg/kg [2, 8]: 42%
inhibition in vivo at 100 mg/kg [2, 9]: 61%

Clc1ccc(CN2CCc3ccsc3C2)s1 [Derivative No. 6, 6-[2-(5-chloro-thienyl)-methyl]-4,5,6,7-tetrahydro-thieno[2,3-c]pyridine]
LD50 at 24 h [4]: 135 mg/kg

CC1c2sccc2CCN1CC(O)c1ccccc1 (stereo not shown) [Derivative No. 7, 6-(2-hydroxy-2-phenyl-ethyl)-7-methyl-4,5,6,7-tetrahydro-thieno[2,3-c]pyridine]
inhibition at 100 mg/kg [3]: 85%

CC(=O)OC(CN1CCc2ccsc2C1)c1ccc(Cl)cc1 (stereo not shown) [Derivative No. 8, 6-(2-acetoxy-2-p-chlorophenyl-ethyl)-4,5,6,7-tetrahydro-thieno[2,3-c]pyridine]
inhibition in vivo at 100 mg/kg [1, 5]: 40%
inhibition in vivo at 100 mg/kg [1, 6]: 49%
inhibition in vivo at 100 mg/kg [1, 7]: 59%
inhibition in vivo at 100 mg/kg [2, 8]: 45%
inhibition in vivo at 100 mg/kg [2, 9]: 58%

CC(O)CN1CCc2ccsc2C1.Cl (stereo not shown) [Derivative No. 9, 6-(2-hydroxy-propyl)-4,5,6,7-tetrahydro-thieno[2,3-c]pyridine, hydrochloride]
LD50 at 24 h [4]: 120 mg/kg
inhibition at 100 mg/kg [3]: 89%

COc1cccc(C(CN2CCc3ccsc3C2)OC(C)=O)c1 (stereo not shown) [Derivative No. 10, 6-(2-acetoxy-2m.methoxyphenyl-ethyl)-4,5,6,7-tetrahydro-thieno[2,3-c]pyridine]
LD50 at 24 h [4]: 80 mg/kg

Cl.O=[N+]([O-])c1ccccc1CN1CCc2ccsc2C1 [Derivative No. 11, 6-o-nitrobenzyl-4,5,6,7-tetrahydro-thieno[2,3-c]pyridine, hydrochloride]
LD50 at 24 h [4]: 160 mg/kg

O=[N+]([O-])c1ccc(CN2CCc3ccsc3C2)cc1 [Derivative No. 12, 6-p-nitrobenzyl-4,5,6,7-tetrahydro-thieno[2,3-c]pyridine]
inhibition at 100 mg/kg [3]: 75%

COc1cc(CN2CCc3ccsc3C2)cc(OC)c1OC.O=C(O)/C=C\C(=O)O [Derivative No. 17, 6-(3,4,5-trimethoxy-benzyl)-4,5,6,7-tetrahydro-thieno[2,3-c]pyridine, maleate]
LD50 at 24 h [4]: 80 mg/kg

COc1ccc(CN2CCc3ccsc3C2)cc1 [Derivative No. 18, 6-p.methoxybenzyl-4,5,6,7-tetrahydro-thieno[2,3-c]pyridine, hydrochloride]
LD50 at 24 h [4]: 60 mg/kg
inhibition at 100 mg/kg [3]: 78%

c1ccc(CCN2CCc3ccsc3C2)cc1 [Derivative No. 19, 6-β-phenethyl-4,5,6,7-tetrahydro-thieno[2,3-c]pyridine, hydrochloride]
LD50 at 24 h [4]: 48 mg/kg

COc1cccc(CN2CCc3ccsc3C2)c1 [Derivative No. 20, 6-m.methoxybenzyl-4,5,6,7-tetrahydro-thieno-[2,3-c]pyridine, hydrochloride]
LD50 at 24 h [4]: 63 mg/kg

Clc1ccc(CN2CCc3ccsc3C2)cc1 [Derivative No. 21, 6-p.chlorobenzyl-4,5,6,7-tetrahydro-thieno[2,3-c]pyridine, hydrochloride]
LD50 at 24 h [4]: 55 mg/kg
inhibition at 100 mg/kg [3]: 91%

Cl.OC(CN1CCc2ccsc2C1)c1ccccc1 (stereo not shown) [Derivative No. 23, 6-(2-hydroxy-2-phenyl-ethyl)-4,5,6,7-tetrahydro-thieno[2,3-c]pyridine, hydrochloride]
LD50 at 24 h [4]: 67 mg/kg

Cc1ccc(CN2CCc3ccsc3C2)cc1 [Derivative No. 24, 6-p.methylbenzyl-4,5,6,7-tetrahydro-thieno[2,3-c]pyridine, hydrochloride]
LD50 at 24 h [4]: 45 mg/kg
inhibition at 100 mg/kg [3]: 78%

COc1ccc(CN2CCc3ccsc3C2)cc1OC.Cl [Derivative No. 25, 6-(3,4-dimethoxy-benzyl)-4,5,6,7-tetrahydro-thieno[2,3-c]pyridine, hydrochloride]
LD50 at 24 h [4]: 90 mg/kg

Fc1ccccc1CN1CCc2ccsc2C1 [Derivative No. 26, 6-o.fluorobenzyl-4,5,6,7-tetrahydro-thieno[2,3-c]pyridine, fumarate]
LD50 at 24 h [4]: 87 mg/kg

OC(CN1CCc2ccsc2C1)c1ccc(Cl)cc1 (stereo not shown) [Derivative No. 27, 6-(2-hydroxy-2-p.chlorophenyl-ethyl)-4,5,6,7-tetrahydro-thieno[2,3-c]pyridine]
LD50 at 24 h [4]: 45 mg/kg
inhibition at 100 mg/kg [3]: 86%

OC(CN1CCc2ccsc2C1)c1ccc(F)cc1 (stereo not shown) [Derivative No. 29, 6-(2-hydroxy-2-p.fluorophenyl-ethyl)-4,5,6,7-tetrahydro-thieno[2,3-c]pyridine]
LD50 at 24 h [4]: 60 mg/kg
inhibition at 100 mg/kg [3]: 89%

CC1c2sccc2CCN1CCc1ccccc1 (stereo not drawn) [Derivative No. 31, 7-methyl-6-β-phenethyl-4,5,6,7-tetrahydro-thieno[2,3-c]pyridine, maleate]
LD50 at 24 h [4]: 53 mg/kg

COc1cccc(C(O)CN2CCc3ccsc3C2C)c1 (stereo not shown) [Derivative No. 33, 6-(2-hydroxy-2-m.methoxyphenyl-ethyl)-7-methyl-4,5,6,7,-tetrahydro-thieno[2,3-c]pyridine]
inhibition at 100 mg/kg [3]: 74%

COc1ccc(OC)c(C(O)CN2CCc3ccsc3C2C)c1 (stereo not shown) [Derivative No. 34, 6-[2-(2,5-dimethoxy-phenyl)-2-hydroxy-ethyl]-7-methyl-4,5,6,7-tetrahydro-thieno[2,3-c]pyridine]
LD50 at 24 h [4]: 84 mg/kg

COc1ccc(OCC(O)CN2CCc3ccsc3C2)cc1 (stereo not shown) [Derivative No. 35, 6-(2-hydroxy-3-p.methoxyphenoxy-propyl)-4,5,6,7-tetrahydro-thieno[2,3-c]pyridine, hydrochloride]
LD50 at 24 h [4]: 19 mg/kg

CC(=O)CCN1CCc2ccsc2C1.O=C(O)/C=C\C(=O)O [Derivative No. 36, 6-(3-oxo-butyl)-4,5,6,7-tetrahydro-thieno[2,3-c]-pyridine, maleate]
LD50 at 24 h [4]: 16 mg/kg

OC(CN1CCc2ccsc2C1)C(Cl)(Cl)Cl (stereo not shown) [Derivative No. 37, 6-(2-hydroxy-3,3,3-trichloro-propyl)-4,5,6,7-tetrahydro-thieno[2,3-c]pyridine]
LD50 at 24 h [4]: 18 mg/kg

COc1ccc(CN2CCc3ccsc3C2)cc1OC [Derivative No. 38, 6-(3,4-dimethoxy-benzyl)-4,5,6,7-tetrahydro-thieno[2,3-c]pyridine]
LD50 at 24 h [4]: 22 mg/kg

Cc1c2sccc2cc[n+]1CC(=O)c1ccccc1.[Br-] [Derivative No. 39, 7-methyl-6-phenacyl-thieno[2,3-c]pyridinium bromide]
LD50 at 24 h [4]: 35 mg/kg

COc1ccc(C(=O)C[n+]2ccc3ccsc3c2C)cc1.[Br-] [Derivative No. 44, 7-methyl-6-p-methoxyphenacyl-thieno[2,3-c]pyridinium bromide]
LD50 at 24 h [4]: 51 mg/kg

COc1cccc(C(CN2CCc3ccsc3C2)OC(C)=O)c1 (stereo not shown) [compound 10]
inhibition in vivo at 100 mg/kg [1, 5]: 43%
inhibition in vivo at 100 mg/kg [1, 6]: 50%
inhibition in vivo at 100 mg/kg [1, 7]: 56%
inhibition in vivo at 100 mg/kg [2, 8]: 48%
inhibition in vivo at 100 mg/kg [2, 9]: 55%

OC(CN1CCc2ccsc2C1)c1ccccc1 (stereo not shown) [compound 23]
inhibition in vivo at 100 mg/kg [1, 5]: 39%
inhibition in vivo at 100 mg/kg [1, 6]: 51%
inhibition in vivo at 100 mg/kg [1, 7]: 58%
inhibition in vivo at 100 mg/kg [2, 8]: 50%
inhibition in vivo at 100 mg/kg [2, 9]: 61%

COc1ccc(CN2CCc3ccsc3C2)c(OC)c1OC [compound 28]
inhibition in vivo at 100 mg/kg [1, 5]: 43%
inhibition in vivo at 100 mg/kg [1, 6]: 52%
inhibition in vivo at 100 mg/kg [1, 7]: 61%
inhibition in vivo at 100 mg/kg [2, 8]: 45%
inhibition in vivo at 100 mg/kg [2, 9]: 63%

COc1ccc(C(O)CN2CCc3ccsc3C2)cc1 (stereo not shown) [compound 30]
inhibition in vivo at 100 mg/kg [1, 5]: 38%
inhibition in vivo at 100 mg/kg [1, 6]: 44%
inhibition in vivo at 100 mg/kg [1, 7]: 51%
inhibition in vivo at 100 mg/kg [2, 8]: 39%
inhibition in vivo at 100 mg/kg [2, 9]: 59%

COc1ccc(OC)c(C(O)CN2CCc3ccsc3C2C)c1 (stereo not shown) [compound 34]
inhibition in vivo at 100 mg/kg [1, 5]: 37%
inhibition in vivo at 100 mg/kg [1, 6]: 48%
inhibition in vivo at 100 mg/kg [1, 7]: 58%
inhibition in vivo at 100 mg/kg [2, 8]: 45%
inhibition in vivo at 100 mg/kg [2, 9]: 61%
